The target of test [1] is T1, Estrogen receptor (Homo sapiens, UniProt P03372).
T1 sequence (P03372 whole entry): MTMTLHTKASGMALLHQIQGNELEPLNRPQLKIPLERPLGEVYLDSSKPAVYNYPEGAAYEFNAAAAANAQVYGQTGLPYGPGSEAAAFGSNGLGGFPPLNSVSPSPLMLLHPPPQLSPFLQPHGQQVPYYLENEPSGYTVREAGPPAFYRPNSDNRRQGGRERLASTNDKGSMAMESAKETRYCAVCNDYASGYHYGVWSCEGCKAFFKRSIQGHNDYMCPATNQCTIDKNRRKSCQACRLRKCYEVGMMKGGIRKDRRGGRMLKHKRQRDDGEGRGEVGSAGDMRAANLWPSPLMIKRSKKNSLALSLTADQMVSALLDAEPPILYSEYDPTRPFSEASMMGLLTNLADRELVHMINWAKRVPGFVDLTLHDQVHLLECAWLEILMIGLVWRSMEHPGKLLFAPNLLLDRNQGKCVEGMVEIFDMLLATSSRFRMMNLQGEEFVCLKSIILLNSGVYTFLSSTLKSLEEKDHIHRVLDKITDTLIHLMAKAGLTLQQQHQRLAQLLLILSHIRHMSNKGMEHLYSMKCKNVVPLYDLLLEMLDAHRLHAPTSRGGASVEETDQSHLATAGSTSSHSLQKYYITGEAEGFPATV

Test [2] addresses T1, Estrogen receptor. The source holds these as a separate data set.
Description: Agonist activity at estrogen receptor alpha (unknown origin) after 22 hrs by cell-based luciferase reporter gene assay
Test [3] deals with T2, Estrogen receptor beta (Homo sapiens, UniProt Q92731).
Test [4] concerns Mus musculus. The test can be described thus: Memory enhancement effect in C57BL/6 mouse assessed as time spent with moved object at 10 pg administered as dorsal hippocampal infusion by novel object recognition test. Type of test: functional.
In test [5] the test system is Mus musculus. In words: Memory enhancement effect in C57BL/6 mouse assessed as time spent with novel object at 10 pg administered as dorsal hippocampal infusion by novel object recognition test. The class given is functional.
In test [6] the test system is Mus musculus. In words: Memory enhancement effect in C57BL/6 mouse assessed as time spent with novel object at 0.05 mg/kg, po administered via gavage by novel object recognition test. The class given is functional.
The test system of test [7] is Mus musculus. The test can be described thus: Memory enhancement effect in C57BL/6 mouse assessed as time spent with moved object at 0.05 mg/kg, po administered via gavage by object recognition test. The class given is functional.
The subject of test [8] is Mus musculus. The test can be described thus: Memory enhancement effect in C57BL/6 mouse assessed as time spent with moved object at 0.05 mg/kg, ip by novel object recognition test. Type of test: functional.
Test [9] deals with Mus musculus. In words: Memory enhancement effect in C57BL/6 mouse assessed as time spent with novel object at 0.05 mg/kg, ip by novel object recognition test. Type of test: functional.
The target in test [10] is T2, Estrogen receptor beta. The source holds these as a separate data set.

T2 sequence (Q92731 whole entry, the tested form may be a part): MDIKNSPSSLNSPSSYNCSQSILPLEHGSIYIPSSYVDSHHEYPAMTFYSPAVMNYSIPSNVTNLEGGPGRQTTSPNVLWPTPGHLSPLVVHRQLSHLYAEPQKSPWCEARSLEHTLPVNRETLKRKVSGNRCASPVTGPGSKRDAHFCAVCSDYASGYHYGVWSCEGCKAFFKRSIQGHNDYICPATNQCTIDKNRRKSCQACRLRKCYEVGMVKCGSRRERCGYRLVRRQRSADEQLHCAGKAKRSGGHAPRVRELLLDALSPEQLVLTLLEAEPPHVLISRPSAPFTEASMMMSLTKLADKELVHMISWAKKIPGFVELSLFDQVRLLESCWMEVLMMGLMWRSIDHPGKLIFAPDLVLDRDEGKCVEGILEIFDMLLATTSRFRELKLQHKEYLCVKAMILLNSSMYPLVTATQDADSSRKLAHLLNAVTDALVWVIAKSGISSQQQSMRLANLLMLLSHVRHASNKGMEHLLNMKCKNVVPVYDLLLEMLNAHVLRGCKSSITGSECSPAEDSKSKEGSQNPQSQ

As a reminder, the EC50 is the concentration that produces a half-maximal response. `CC1CCC(c2ccc(O)cc2)CC1` (stereo not drawn): the EC50 on Estrogen receptor [1] and at Estrogen receptor [2] was over 10 µM in each case.

For `OCCC1CCC(c2ccc(O)cc2)CC1` (stereo not drawn), the results for the EC50 on Estrogen receptor [1] and on Estrogen receptor [2] were over 10 µM and over 50 µM, respectively.

`C=C1CCC(c2ccc(O)cc2)CC1`: the EC50 on Estrogen receptor [1] and at Estrogen receptor [2] was over 10 µM in each case.

As to `ON=C1CCC(c2ccc(O)cc2)CC1` (stereo not drawn), the EC50 at Estrogen receptor beta [3] was 1.57 µM.

On to `N#CC(Cc1ccc(O)cc1)c1ccc(O)cc1` (stereo not drawn) [DIARYLPROPIONITRILE], for which the Time is recorded as 4.5 s with Mus musculus [4]; 2.35 s with Mus musculus [5]; 3.89 s in the test on Mus musculus [6]; 2.76 s with Mus musculus [7]; 3.2 s in the test with Mus musculus [8]; 3.52 s in the test on Mus musculus [9].

On to `Oc1ccc([C@H]2CC[C@H](O)CC2)cc1`, for which, on Estrogen receptor beta [10], the concentration giving a half-maximal response (EC50) was 7.52 µM.

Turning to `OCC=C1CCC(c2ccc(O)cc2)CC1` (racemic), the midpoint of the response at Estrogen receptor beta [3], the EC50, lay at 0.68 µM. This counts as sub-micromolar.

For the compound `C=C1CCC(c2ccc(O)c(/C=N/O)c2)CC1`, it took 0.225 µM to reach a half-maximal effect at Estrogen receptor beta [10] (EC50).

Regarding `OC[C@]1(O)CC[C@H](c2ccc(O)cc2)CC1`, at Estrogen receptor beta [10], the EC50 came to 2.7 µM. This EC50 is about […]-fold higher than that of the compound before.

In the case of `OCC1CC=C(c2ccc(O)cc2)CC1` (racemic), the results for the concentration for a half-maximal effect (EC50) at Estrogen receptor [1] and at Estrogen receptor [2] were over 10 µM and over 20 µM, respectively.

At Estrogen receptor beta [10], `Oc1ccc([C@]23CC[C@H](CC2)CO3)cc1` returned an EC50 of 0.25 µM.

With `C=C1CCC(c2ccc(O)c(C=O)c2)CC1`, on Estrogen receptor beta [10], the response was half-maximal at 21 µM (EC50).

In turn, `C[C@]1(O)CC[C@@H](c2ccc(O)cc2)CC1` returned a concentration giving a half-maximal response (EC50) at Estrogen receptor beta [10] of 6.29 µM. Compared with the last compound, the EC50 is about 3.3-fold lower.

For `O=C1CCC(c2ccc(O)cc2)CC1`, the concentration giving a half-maximal response (EC50) on Estrogen receptor beta [10] turned out to be 19 µM.
